We go through 26 compounds from PubChem BioAssay (NCI).

What all share (experiment): DTP human tumour cell line panel, 48 h
In assay [1] the test system is UACC-257 melanoma.
The subject of assay [2] is HOP-62 NSCLC.
Assay [3] relates to HCT-116 colon.
The subject of assay [4] is HT29 colon.
For assay [5], the system named is CCRF-CEM leukemia.
Assay [6] concerns SNB-19 CNS.
The subject of assay [7] is OVCAR-4 ovarian.
The subject of assay [8] is OVCAR-3 ovarian.
Assay [9] relates to A549 NSCLC.
Assay [10] deals with SK-OV-3 ovarian.

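Interpolation was linear, between the two tested concentrations surrounding the appropriate level; five concentrations were tested over 48 hours in 96-well plates. GI50 marks 50% less growth. TGI marks complete inhibition of growth.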 Bounds are passed on as bounds.

`COc1ccc(C2=NN(c3ccccc3)C[N+](c3ccc(OC)cc3)=N2)cc1`: the total growth inhibition concentration (TGI) (in general, the concentration giving total growth inhibition) was greater than 100 µM in [1]; greater than 100 µM in assay [2]; greater than 100 µM in assay [3]; greater than 100 µM in assay [4]; 83.4 µM in [5]; 92.1 µM in assay [6]. Also, the TGI in [7] is 64 µM; in assay [8], 46 µM; in [9] it was greater than 100 µM.
As for `Cc1ccccc1NC(=O)C(=O)CC(=O)c1c(C)n([O-])c2ccccc2[n+]1=O`, the TGI in [1], in assay [2], in assay [3], in assay [4], in assay [6] and in [7] was greater than 100 µM each time. The TGI in assay [8], in assay [10] and in assay [9] was greater than 100 µM in each case.
For `NC(=O)c1c(NC(=O)c2ccc3c(c2)OCO3)sc2c1CCC(=O)C2`, the GI50 (usually the concentration giving 50% growth inhibition) is 4.11 µM in [2]; 0.333 µM in assay [5]; 2.17 µM in assay [6]; 494 nM in assay [7]; 3.44 µM in assay [9]. Besides, the TGI was greater than 100 µM in assay [2]; 2.32 µM in assay [5]; greater than 100 µM in [6]; 1.79 µM in assay [7]; greater than 100 µM in assay [9].
In the case of `C1=C2/CC[C@H](Sc3ccccc3)[C@H]2C2(CCCCC/1)OCCO2`, the TGI in [1] is 55 µM; in [2] it was greater than 100 µM; in assay [3] it was greater than 100 µM; in [4] it was greater than 100 µM; in [5], 66.4 µM; in assay [6], greater than 100 µM. For the same compound, the TGI is 81.7 µM in assay [8], greater than 100 µM in assay [10] and greater than 100 µM in assay [9].
With `C/C=C(/COC(C)=O)C(=O)OC1C=C(C=O)C(C)(C)C=C1C` (configuration not stated), the TGI in assay [1], in [3], in assay [4], in assay [5], in assay [6] and in assay [7] was greater than 100 µM in each case. Further, the TGI in [10] and in [9] was greater than 100 µM in each case.
In the case of `N#CC(c1nc2ccccc2nc1Cl)S(=O)(=O)c1ccccc1` (configuration not stated), the TGI in [1], in assay [2], in assay [3], in assay [5], in [6] and in assay [7] was greater than 100 µM throughout. Also, the TGI in [8] and in assay [9] was greater than 100 µM in each case.
`COc1ccc(C(C#N)Cc2cc(OC)c(OC)c(OC)c2)cc1` (configuration not stated): the TGI in assay [1], in assay [2], in assay [3], in assay [4], in assay [5] and in assay [6] was greater than 100 µM throughout. In addition, the TGI in assay [7], in assay [8] and in assay [9] was greater than 100 µM throughout.
In the case of `Cc1ccc(N2C(=O)C3C=CC(n4[nH]c(=O)n(Cc5ccccc5)c4=O)CC3C2=O)cc1` (configuration not stated), the TGI in assay [1], in assay [2], in assay [3], in assay [4], in assay [5] and in assay [6] was greater than 100 µM in each case. In addition, the TGI in assay [8], in assay [10] and in [9] was greater than 100 µM in each case.
Turning to `CCOC(=O)NC(=O)c1cn(CCN2CCN(c3ncnc4nc[nH]c34)CC2)c(=O)[nH]c1=O`, the TGI in assay [1], in assay [2], in assay [3], in [4], in assay [5] and in [6] was greater than 100 µM in each case. The TGI in assay [8], in assay [10] and in [9] was greater than 100 µM each time.
For the compound `CN(/N=C/c1cccc2cccnc12)c1ccccc1`, the TGI in assay [1], in assay [2], in [4], in assay [5], in [6] and in assay [7] was greater than 100 µM throughout. For the same compound, the TGI in assay [8] was 68 µM; in assay [10], greater than 100 µM; in assay [9], greater than 100 µM.
As to `C=C1c2[nH]c3c([N+](=O)[O-])c(OC)ccc3c2CCN1C(C)=O`, the TGI in assay [1], in assay [2], in [3], in [4], in [5] and in assay [6] was greater than 100 µM each time. Moreover, the TGI in assay [7], in [8] and in assay [9] was greater than 100 µM throughout.
Regarding `COC(=O)c1cc(Cl)ccc1NC(=O)c1ccc([N+](=O)[O-])cc1`, the TGI in [1] is greater than 100 µM; in assay [2], 38.8 µM; in assay [3], 17.9 µM; in [4] it was 35.1 µM; in [5], 80.4 µM; in [7], 12.3 µM. Besides, the values for the TGI in assay [8], in [10] and in [9] were 31.4 µM, 42.5 µM and 58.2 µM, respectively.
For `COc1ccc2ccccc2c1C1OC(=O)c2ccccc21` (configuration not stated), the TGI in [1], in assay [2], in assay [4], in assay [5], in [6] and in [7] was greater than 100 µM throughout. In addition, the TGI in [8], in assay [10] and in [9] was greater than 100 µM each time.
As to `Nc1[nH]nc2nc(-c3cccs3)cc(C(F)(F)F)c12`, the GI50 in assay [1] was greater than 25 µM; in [2], greater than 25 µM; in assay [3], greater than 17900 nM; in assay [4], greater than 25 µM; in assay [6] it was greater than 25 µM; in [7], greater than 25000 nM. Also, the GI50 in assay [8] is greater than 25 µM; in assay [10] it was greater than 25 µM; in assay [9], 24.3 µM. Moreover, the TGI in [1], in assay [2], in assay [3], in [4], in assay [6] and in [7] was greater than 25 µM throughout. Besides, the TGI in assay [8], in assay [10] and in assay [9] was greater than 25 µM throughout.
On to `CCc1cccc(C)c1NC(=O)C(=O)Cc1nc2ccccc2s1`, for which the TGI in assay [1], in assay [3], in assay [4], in assay [5], in [6] and in [7] was greater than 100 µM throughout. For the same compound, the TGI in assay [8], in assay [10] and in assay [9] was greater than 100 µM in each case.
As for `Cc1ccc(C)c(NC(=O)CC/C(=N\NC(=O)c2c(O)ccc3ccccc23)C(C)C(=O)c2ccc(O)cc2)c1` (configuration not stated), the TGI in assay [1] was 87.1 µM; in assay [2] it was greater than 100 µM; in [3], greater than 100 µM; in assay [4], greater than 100 µM; in assay [5], 71 µM; in assay [6] it was greater than 100 µM. The TGI in [7] was greater than 100 µM; in assay [8], 89.2 µM; in assay [9] it was greater than 100 µM.
For the compound `O=S1(=O)OCCOS(=O)(=O)C1Cc1ccccc1`, the TGI in assay [1], in assay [2], in assay [3], in assay [4], in assay [6] and in assay [7] was greater than 100 µM in each case. Moreover, the results for the TGI in assay [8], in assay [10] and in assay [9] were 44.9 µM, greater than 100 µM and greater than 100 µM, respectively.
Consider `O=C(Nc1cccc(NC(=O)Nc2cc(C(F)(F)F)ccc2Cl)c1)Nc1cc(C(F)(F)F)ccc1Cl`, for which the GI50 in [1] is 4.29 µM; in assay [2], 1.35 µM; in [3] it was 2410 nM; in assay [4], 4.26 µM; in assay [5] it was 3.21 µM; in assay [6] it was 1.77 µM. Further, the GI50 is 746 nM in [7], 2.9 µM in assay [10] and 1.95 µM in [9]. Further, the total growth inhibition concentration (TGI) in assay [1] was determined as 41.4 µM; in [2], 4.01 µM; in [3], 22.8 µM; in [4], 66.1 µM; in [5] it was 71.7 µM; in [6], 14 µM. Further, the TGI in assay [7] came out at 3.61 µM; in assay [10], 11.3 µM; in assay [9] it was 15.8 µM.
In the case of `CN1c2ccccc2N(C)C23N(C)c4ccccc4N(C)C12N(C)c1ccccc1N3C` (configuration not stated), the TGI in assay [1], in assay [2], in assay [3], in [4], in assay [5] and in [6] was greater than 100 µM in each case. Besides, the TGI in assay [8] and in [9] was greater than 100 µM each time.
As to `[N-]=[N+]=NC(CI)c1cn([C@H]2C[C@H](O)[C@@H](CO)O2)c(=O)[nH]c1=O` (some centres not stated), the TGI in assay [2], in assay [3], in [4], in assay [5], in assay [6] and in assay [8] was greater than 100 µM each time. The TGI in [10] and in assay [9] was greater than 100 µM in each case.
Consider `COc1ccc(/C=C2\S/C(=N/Nc3nc(-c4ccccc4)cs3)NC2=O)cc1OC`, for which the TGI in assay [1] is greater than 100 µM; in assay [2] it was greater than 100 µM; in assay [3], 41.6 µM; in assay [5], 22.3 µM; in assay [6] it was 89.9 µM; in assay [7] it was 98.1 µM. Also, the TGI is 55.8 µM in assay [8], 63.7 µM in assay [10] and greater than 100 µM in [9].
For `CCCOC(=O)N1CCN(/[N+]([O-])=N/Oc2ccc([N+](=O)[O-])cc2[N+](=O)[O-])CC1`, the GI50 in assay [1] is 9.52 µM; in [2] it was 2.58 µM; in assay [3], 301 nM; in [4], 2.05 µM; in [6], 5.08 µM; in assay [8], 2.29 µM. Further, the GI50 in assay [9] is 3.85 µM. For the same compound, the TGI is 24.2 µM in assay [1]; 6.4 µM in assay [2]; 1.17 µM in [3]; greater than 100 µM in [4]; 18.7 µM in assay [6]; 4.48 µM in assay [8]. In addition, the TGI in [9] is 22.4 µM.
Regarding `COC(=O)c1cc2ccc(OC(C)=O)c(OC(C)=O)c2cn1`, the TGI in [1] was determined as 29.2 µM; in assay [2] it was 42.7 µM; in [3], 32.7 µM; in assay [4], 52.6 µM; in assay [5], 5.57 µM; in [7], 30.6 µM. The values for the TGI in [8], in assay [10] and in [9] were 30.9 µM, 52.4 µM and 43 µM, respectively.
In the case of `Clc1nc(Cl)c2ncn(C/C=C/COc3cccc(OC/C=C/Cn4cnc5c(Cl)nc(Cl)nc54)c3)c2n1`, the GI50 in assay [1] was greater than 100 µM; in assay [2], 99.6 µM; in assay [4], greater than 100 µM; in [5] it was 31 µM; in assay [6] it was greater than 100 µM; in assay [7], 36300 nM. The values for the GI50 in assay [8], in assay [10] and in assay [9] were 95 µM, greater than 100 µM and greater than 100 µM, respectively. Moreover, the TGI in assay [1], in assay [2], in assay [4], in [5], in assay [6] and in assay [7] was greater than 100 µM in each case. Also, the TGI in [8], in assay [10] and in assay [9] was greater than 100 µM throughout.
Regarding `C/C(CC(=O)Nc1ccc(Cl)cc1)=N\NC(N)=S`, the TGI in assay [1], in [2], in assay [3], in assay [4], in assay [5] and in assay [8] was greater than 100 µM each time. The TGI in [10] and in [9] was greater than 100 µM each time.
In the case of `COC(=O)C1=C(c2cc(OC)c(OC)c(OC)c2)OC(c2ccc(OC)c(OC)c2)C1` (configuration not stated), the TGI in [1], in [2], in assay [3], in [4], in assay [5] and in assay [7] was greater than 100 µM throughout. Besides, the TGI in assay [8], in [10] and in assay [9] was greater than 100 µM in each case.
